Four compounds from paper doi:10.1101/2023.11.24.568596v1 (biorxiv, 2023) can be followed below.

Holding throughout (conditions): binder
The target of experiment [1] is T1, BMX (Homo sapiens, UniProt P51813).
T1 sequence (P51813 1-675): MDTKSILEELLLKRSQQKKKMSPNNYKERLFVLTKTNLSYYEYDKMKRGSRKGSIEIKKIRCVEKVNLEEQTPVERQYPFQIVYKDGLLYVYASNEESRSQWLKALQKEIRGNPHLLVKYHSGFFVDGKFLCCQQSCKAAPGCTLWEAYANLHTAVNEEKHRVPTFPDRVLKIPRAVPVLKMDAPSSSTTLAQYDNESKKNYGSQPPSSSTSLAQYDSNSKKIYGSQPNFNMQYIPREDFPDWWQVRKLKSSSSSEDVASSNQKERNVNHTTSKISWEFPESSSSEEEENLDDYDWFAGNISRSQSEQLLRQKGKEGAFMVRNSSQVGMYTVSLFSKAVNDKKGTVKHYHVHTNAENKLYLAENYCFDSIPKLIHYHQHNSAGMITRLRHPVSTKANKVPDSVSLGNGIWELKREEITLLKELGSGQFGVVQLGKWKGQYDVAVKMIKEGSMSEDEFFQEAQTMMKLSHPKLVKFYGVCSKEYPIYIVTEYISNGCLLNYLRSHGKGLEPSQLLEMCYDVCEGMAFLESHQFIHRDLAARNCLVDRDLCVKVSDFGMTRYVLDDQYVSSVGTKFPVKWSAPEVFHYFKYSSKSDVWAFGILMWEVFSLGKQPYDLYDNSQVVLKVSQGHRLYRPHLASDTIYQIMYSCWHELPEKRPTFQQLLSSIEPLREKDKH

Experiment [2] deals with CDK2 (Homo sapiens, UniProt P24941).
Experiment [3] has as its target CLK1 (Homo sapiens, UniProt P49759).
The target of experiment [4] is DAPK1 (Homo sapiens, UniProt P53355).
In experiment [5] the target is EphA5 (Homo sapiens, UniProt P54756).
The target in experiment [6] is EphA7 (Homo sapiens, UniProt Q15375).
In experiment [7] the target is FGFR1 (Homo sapiens, UniProt P11362).
Experiment [8] concerns the target GSK3B (Homo sapiens, UniProt P49841).
Experiment [9] addresses JNK3 (Homo sapiens, UniProt P53779).
The target in experiment [10] is MRCKa (Homo sapiens, UniProt Q5VT25).
The target of experiment [11] is NDR2 (Homo sapiens, UniProt Q9Y2H1).
Experiment [12] deals with T2, TTK (Homo sapiens, UniProt P33981).
T2 sequence (P33981 1-857): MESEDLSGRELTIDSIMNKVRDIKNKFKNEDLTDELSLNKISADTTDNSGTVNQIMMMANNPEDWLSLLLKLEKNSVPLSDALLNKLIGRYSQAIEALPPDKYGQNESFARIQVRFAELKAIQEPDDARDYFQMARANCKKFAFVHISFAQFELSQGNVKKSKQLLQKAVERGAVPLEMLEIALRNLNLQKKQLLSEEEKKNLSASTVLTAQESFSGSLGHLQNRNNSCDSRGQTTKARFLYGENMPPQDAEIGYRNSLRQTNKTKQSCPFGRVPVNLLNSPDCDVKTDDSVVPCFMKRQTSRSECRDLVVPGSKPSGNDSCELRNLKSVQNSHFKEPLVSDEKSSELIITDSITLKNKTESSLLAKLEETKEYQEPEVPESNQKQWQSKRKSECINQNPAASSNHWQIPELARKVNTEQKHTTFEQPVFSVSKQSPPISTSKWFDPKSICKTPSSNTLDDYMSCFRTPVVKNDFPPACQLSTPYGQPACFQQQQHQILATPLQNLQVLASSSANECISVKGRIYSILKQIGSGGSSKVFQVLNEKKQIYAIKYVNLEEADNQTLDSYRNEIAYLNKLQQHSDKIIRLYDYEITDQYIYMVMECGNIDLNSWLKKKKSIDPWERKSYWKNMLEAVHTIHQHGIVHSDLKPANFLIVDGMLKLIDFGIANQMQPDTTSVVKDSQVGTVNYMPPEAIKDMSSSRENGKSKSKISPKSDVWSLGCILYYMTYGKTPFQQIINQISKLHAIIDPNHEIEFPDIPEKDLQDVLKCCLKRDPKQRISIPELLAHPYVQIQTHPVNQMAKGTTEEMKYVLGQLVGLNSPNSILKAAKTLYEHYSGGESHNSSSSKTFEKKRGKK

Experiment [13] deals with T3, VRK1 (Homo sapiens, UniProt Q99986).
T3 sequence (Q99986 1-396): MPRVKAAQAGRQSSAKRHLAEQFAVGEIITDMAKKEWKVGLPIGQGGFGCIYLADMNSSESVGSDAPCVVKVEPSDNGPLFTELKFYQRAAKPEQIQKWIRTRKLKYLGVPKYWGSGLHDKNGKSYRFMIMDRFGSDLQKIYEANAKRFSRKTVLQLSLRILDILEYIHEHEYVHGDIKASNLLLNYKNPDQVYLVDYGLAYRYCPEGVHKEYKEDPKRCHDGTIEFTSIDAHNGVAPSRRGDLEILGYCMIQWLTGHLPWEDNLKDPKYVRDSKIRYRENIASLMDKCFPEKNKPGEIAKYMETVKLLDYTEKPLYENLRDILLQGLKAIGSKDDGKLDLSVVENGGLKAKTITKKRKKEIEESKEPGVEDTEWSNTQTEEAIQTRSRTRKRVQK

Sequence of MRCKa (Q5VT25 whole entry): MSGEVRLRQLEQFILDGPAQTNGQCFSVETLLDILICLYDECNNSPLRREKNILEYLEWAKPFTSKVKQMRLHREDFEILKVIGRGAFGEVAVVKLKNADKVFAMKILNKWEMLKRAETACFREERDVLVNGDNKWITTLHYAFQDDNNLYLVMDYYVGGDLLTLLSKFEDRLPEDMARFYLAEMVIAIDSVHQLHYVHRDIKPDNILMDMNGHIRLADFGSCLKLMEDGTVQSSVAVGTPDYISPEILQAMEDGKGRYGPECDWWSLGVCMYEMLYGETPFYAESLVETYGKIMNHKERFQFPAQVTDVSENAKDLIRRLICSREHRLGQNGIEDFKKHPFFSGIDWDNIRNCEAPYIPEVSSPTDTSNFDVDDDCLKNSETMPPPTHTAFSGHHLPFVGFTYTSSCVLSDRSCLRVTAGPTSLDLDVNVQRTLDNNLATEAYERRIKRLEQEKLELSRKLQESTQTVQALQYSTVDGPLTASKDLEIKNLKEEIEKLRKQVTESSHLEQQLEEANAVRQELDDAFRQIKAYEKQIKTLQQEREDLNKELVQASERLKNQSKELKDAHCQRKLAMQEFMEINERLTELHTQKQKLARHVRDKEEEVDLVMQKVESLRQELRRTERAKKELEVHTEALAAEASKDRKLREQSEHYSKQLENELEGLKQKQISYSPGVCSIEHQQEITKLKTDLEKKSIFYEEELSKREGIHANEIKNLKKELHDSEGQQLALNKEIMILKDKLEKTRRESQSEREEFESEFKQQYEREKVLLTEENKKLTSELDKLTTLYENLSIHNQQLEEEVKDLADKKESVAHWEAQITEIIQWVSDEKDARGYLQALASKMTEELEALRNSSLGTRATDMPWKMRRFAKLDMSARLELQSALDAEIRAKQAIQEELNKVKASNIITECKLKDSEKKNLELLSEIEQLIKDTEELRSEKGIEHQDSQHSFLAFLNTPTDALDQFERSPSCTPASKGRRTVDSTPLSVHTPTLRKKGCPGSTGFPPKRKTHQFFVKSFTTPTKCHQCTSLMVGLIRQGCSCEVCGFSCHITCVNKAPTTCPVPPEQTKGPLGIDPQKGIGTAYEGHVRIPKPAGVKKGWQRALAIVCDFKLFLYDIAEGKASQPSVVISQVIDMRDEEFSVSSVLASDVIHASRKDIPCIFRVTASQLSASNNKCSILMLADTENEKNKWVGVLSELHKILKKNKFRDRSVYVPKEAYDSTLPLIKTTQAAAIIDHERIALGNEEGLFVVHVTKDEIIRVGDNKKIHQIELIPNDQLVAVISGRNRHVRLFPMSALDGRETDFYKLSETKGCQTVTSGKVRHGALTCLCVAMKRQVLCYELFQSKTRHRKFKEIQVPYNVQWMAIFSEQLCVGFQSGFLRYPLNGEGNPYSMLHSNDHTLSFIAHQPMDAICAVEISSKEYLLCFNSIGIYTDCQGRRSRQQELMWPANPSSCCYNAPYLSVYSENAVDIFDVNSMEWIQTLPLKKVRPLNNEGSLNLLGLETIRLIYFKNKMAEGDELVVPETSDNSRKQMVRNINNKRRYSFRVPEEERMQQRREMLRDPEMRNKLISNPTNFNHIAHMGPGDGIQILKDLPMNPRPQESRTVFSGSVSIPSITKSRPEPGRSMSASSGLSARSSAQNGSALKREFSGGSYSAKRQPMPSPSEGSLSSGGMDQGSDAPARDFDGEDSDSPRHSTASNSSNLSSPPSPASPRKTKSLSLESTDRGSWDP
Sequence of FGFR1 (P11362 whole entry): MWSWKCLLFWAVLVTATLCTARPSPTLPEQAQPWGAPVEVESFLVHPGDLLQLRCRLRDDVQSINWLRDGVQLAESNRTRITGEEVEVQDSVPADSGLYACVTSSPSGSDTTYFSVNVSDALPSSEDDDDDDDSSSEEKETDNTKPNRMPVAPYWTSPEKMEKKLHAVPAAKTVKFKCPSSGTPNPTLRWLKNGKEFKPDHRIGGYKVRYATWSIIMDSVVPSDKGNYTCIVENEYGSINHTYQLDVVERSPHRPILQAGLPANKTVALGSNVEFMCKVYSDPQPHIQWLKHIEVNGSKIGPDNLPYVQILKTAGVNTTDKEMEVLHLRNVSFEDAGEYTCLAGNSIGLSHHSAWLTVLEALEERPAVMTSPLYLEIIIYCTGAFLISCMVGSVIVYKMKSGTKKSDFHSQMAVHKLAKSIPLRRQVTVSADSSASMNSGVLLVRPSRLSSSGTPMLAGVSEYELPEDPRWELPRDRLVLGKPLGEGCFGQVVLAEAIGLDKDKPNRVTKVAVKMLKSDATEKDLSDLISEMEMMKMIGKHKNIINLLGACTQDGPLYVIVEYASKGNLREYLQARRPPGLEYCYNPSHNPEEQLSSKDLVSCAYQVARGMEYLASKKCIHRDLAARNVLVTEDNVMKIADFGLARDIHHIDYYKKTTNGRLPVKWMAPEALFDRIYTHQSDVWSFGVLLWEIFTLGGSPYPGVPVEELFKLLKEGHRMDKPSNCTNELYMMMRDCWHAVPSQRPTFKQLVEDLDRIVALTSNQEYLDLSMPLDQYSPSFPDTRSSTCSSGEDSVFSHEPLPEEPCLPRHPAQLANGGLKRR
Sequence of EphA5 (P54756 whole entry): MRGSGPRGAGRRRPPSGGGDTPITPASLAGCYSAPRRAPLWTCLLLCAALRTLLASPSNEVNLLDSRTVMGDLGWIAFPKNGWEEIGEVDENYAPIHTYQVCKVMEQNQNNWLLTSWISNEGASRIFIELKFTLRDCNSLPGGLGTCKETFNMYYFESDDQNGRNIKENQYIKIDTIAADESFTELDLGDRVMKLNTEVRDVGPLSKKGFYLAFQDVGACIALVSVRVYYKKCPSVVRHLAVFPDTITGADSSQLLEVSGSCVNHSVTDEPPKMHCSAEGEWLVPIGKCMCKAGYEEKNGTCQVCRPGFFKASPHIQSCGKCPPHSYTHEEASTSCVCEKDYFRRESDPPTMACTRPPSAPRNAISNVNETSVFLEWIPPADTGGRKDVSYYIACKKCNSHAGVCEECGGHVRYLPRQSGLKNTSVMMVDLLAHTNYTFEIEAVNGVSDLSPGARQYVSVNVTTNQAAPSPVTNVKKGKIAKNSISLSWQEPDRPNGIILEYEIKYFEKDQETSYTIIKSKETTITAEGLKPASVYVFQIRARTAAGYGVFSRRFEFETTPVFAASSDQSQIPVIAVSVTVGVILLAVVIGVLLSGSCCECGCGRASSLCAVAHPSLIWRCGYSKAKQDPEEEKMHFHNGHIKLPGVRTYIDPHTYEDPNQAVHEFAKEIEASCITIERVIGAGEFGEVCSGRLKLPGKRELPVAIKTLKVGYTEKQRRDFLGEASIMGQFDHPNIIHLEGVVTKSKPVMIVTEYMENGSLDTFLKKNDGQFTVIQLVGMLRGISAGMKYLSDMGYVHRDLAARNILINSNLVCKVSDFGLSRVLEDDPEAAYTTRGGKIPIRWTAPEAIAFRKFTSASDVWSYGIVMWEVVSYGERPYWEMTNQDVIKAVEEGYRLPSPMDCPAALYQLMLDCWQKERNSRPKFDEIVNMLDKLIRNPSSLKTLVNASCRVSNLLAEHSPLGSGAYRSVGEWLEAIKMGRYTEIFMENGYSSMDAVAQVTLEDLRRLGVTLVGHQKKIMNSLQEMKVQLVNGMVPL
Sequence of NDR2 (Q9Y2H1 whole entry): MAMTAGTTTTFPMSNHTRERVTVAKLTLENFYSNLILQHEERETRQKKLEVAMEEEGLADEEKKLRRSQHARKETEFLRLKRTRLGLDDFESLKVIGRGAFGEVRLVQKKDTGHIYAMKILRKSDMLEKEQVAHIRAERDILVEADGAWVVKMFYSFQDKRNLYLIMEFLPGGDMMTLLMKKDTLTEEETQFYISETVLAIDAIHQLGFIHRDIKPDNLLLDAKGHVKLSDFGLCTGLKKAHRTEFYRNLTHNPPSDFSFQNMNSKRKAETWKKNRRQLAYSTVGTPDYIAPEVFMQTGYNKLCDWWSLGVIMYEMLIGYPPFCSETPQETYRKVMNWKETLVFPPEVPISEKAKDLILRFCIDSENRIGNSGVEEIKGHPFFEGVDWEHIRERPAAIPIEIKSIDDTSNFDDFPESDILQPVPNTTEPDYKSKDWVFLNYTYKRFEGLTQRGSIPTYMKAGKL
Sequence of GSK3B (P49841 whole entry): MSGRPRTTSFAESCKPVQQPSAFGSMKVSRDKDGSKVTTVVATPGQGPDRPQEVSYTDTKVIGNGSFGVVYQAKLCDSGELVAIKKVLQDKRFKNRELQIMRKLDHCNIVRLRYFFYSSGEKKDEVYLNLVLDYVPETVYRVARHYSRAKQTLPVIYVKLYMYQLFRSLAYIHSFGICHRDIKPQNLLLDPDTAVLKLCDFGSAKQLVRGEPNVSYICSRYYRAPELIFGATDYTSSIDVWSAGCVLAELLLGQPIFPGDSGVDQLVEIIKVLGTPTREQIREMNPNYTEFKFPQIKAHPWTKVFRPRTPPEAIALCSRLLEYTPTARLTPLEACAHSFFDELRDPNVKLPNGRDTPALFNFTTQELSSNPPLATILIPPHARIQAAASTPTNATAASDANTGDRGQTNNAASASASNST
Sequence of JNK3 (P53779 whole entry): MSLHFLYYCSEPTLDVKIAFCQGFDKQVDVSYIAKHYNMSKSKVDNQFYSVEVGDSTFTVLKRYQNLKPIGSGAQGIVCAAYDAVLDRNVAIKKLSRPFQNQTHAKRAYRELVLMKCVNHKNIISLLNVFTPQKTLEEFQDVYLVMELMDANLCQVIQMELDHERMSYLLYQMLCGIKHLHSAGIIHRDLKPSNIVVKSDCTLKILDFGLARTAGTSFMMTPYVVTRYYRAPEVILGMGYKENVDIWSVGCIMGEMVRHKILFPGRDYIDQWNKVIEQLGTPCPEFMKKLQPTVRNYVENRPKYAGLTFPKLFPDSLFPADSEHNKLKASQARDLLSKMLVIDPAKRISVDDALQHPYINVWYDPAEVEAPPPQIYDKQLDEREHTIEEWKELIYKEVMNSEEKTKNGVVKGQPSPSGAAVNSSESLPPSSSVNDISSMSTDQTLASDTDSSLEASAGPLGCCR

For the compound `COc1ccc(O)c(Nc2ncc3cc(-c4ccc(-c5cccc(C)n5)cc4Cl)c(=O)n(CCCCN)c3n2)c1` [compound 34, 8-(4-Aminobutyl)-6-(2-chloro-4-(6-methylpyridin-2-yl)phenyl)-2-((2-hydroxy-5-methoxy-phenyl)amino)pyrido[2,3-d]pyrimidin-7(8H)-one], the “dTm 34” value is 4.1 °C in [1]; 1.4 °C in experiment [2]; -0.3 °C in experiment [3]; -0.8 °C in experiment [4]; 3.2 °C in [5]; 3.4 °C in [6]. Besides, the “dTm 34” value in [7] came to 0.9 °C; in experiment [8], 2.0 °C; in experiment [9], 3.0 °C; in [10], 0.8 °C; in [11], 6.0 °C; in [12] it was 2.9 °C. The “dTm 34” value in experiment [13] came out at 0.0 °C.
For `Cc1cccc(-c2ccc(-c3cc4cnc(Nc5ccc(F)c(CO)c5)nc4n(CCCCN)c3=O)c(Cl)c2)n1` [compound 33, 8-(4-Aminobutyl)-6-(2-chloro-4-(6-methylpyridin-2-yl)phenyl)-2-((4-fluoro-3-(hydroxymethyl)phenyl)amino)pyrido[2,3-d]pyrimidin-7(8H)-one], the “dTm 33” value was 7.1 °C in experiment [1]; 6.0 °C in experiment [2]; -0.2 °C in [3]; -1.1 °C in experiment [4]; 6.8 °C in experiment [5]; 5.3 °C in experiment [6]. Moreover, the “dTm 33” value in experiment [7] was 2.0 °C; in experiment [8], 2.3 °C; in experiment [9], 5.2 °C; in experiment [10] it was 1.9 °C; in experiment [11], 10.4 °C; in experiment [12], 1.3 °C. Besides, the “dTm 33” value in experiment [13] worked out at 0.4 °C.
Regarding `COc1cc(N2CCOCC2)ccc1Nc1ncc2cc(-c3ccc(-c4cccc(C)n4)cc3Cl)c(=O)n(CCCCN)c2n1` [compound 35, 8-(4-Aminobutyl)-6-(2-chloro-4-(6-methylpyridin-2-yl)phenyl)-2-((2-methoxy-4-morpholino-phenyl)amino)pyrido[2,3-d]pyrimidin-7(8H)-one], the “dTm 35” value was 4.4 °C in [1]; 1.0 °C in experiment [2]; -1.6 °C in experiment [3]; -2.1 °C in [4]; 4.2 °C in [5]; 5.8 °C in [6]. For the same compound, the “dTm 35” value is 0.4 °C in experiment [7]; -0.3 °C in experiment [8]; 2.3 °C in experiment [9]; -2.1 °C in experiment [10]; 6.5 °C in experiment [11]; 7.8 °C in experiment [12]. In addition, the “dTm 35” value in experiment [13] was -0.2 °C.
`COc1cc(N2CCN(C)CC2)ccc1Nc1ncc2cc(-c3ccc(-c4cccc(C)n4)cc3Cl)c(=O)n(CCCCN)c2n1` [compound 36, 8-(4-Aminobutyl)-6-(2-chloro-4-(6-methylpyridin-2-yl)phenyl)-2-((2-methoxy-4-(4-methylpiperazin-1-yl)phenyl)amino)pyrido[2,3-d]pyrimidin-7(8H)-one]: the “dTm 36” value in experiment [1] is 3.3 °C; in experiment [2], 0.6 °C; in [3], -0.9 °C; in [4], -1.2 °C; in experiment [5] it was 3.5 °C; in experiment [6], 5.0 °C. Further, the “dTm 36” value is 2.0 °C in experiment [7]; 0.2 °C in [8]; 1.1 °C in experiment [9]; -0.9 °C in experiment [10]; 5.2 °C in experiment [11]; 4.3 °C in [12]. In experiment [13], the “dTm 36” value turned out to be 0.1 °C.
